Results: patent US20230108093A1, “METHODS FOR PREDICTING AND TREATING LAMENESS” (Novus International, Inc., priority 2021, published 2023)

Test system: barrows
Assay: Fast growth study (Example 2): average daily growth, gait score, lameness incidence
Type: in vivo, pig
Settings: pigs fed RAC 10 ppm last 25 days, regardless of diet
Method: A study was conducted in 144 healthy barrows, in which serum biomarkers were measured over 69 days at day 0, day 28, and day 69. Fast growth was induced in some pigs as explained below.
The study was a 2×2 factorial study. The first factor was diet. Pigs were fed either inorganic trace minerals (ITM) or Mintrex° (MTX), an organic mineral. The ITM included a ratio of 120-20-40 ppm Zn—Cu—Mn. The MTX included a ratio of 80-10-20 ppm Zn—Cu—Mn.
The second factor was feeding ractopamine (RAC; a beta-adrenergic agonist) to induce fast growth. Pigs were fed ractopamine at either 0 ppm or 10 ppm during the last 25 days of the trial.

With `CC(CCc1ccc(O)cc1)NCC(O)c1ccc(O)cc1` (racemic) [RAC, ractopamine] the “ADG (average daily growth)” value was “increased”.
